This is an account of results in patent US8642602B2, “Method of inhibiting fibrogenesis and treating fibrotic disease” (University of Georgia Research Foundation, Inc., priority 2009, dated 2014).

Test [1] relates to collagen I. Kind of test: Further testing: fibrogenic activity measured by production of collagen I. In kind it is cell-based. To be noted: 1 μM, one dose at start of culturing, 7 days (FIG. 11). The source says:
RNA was also isolated on days 4 and 7.

Test [2] deals with hepatic stellate cells. As to the kind of experiment: Induction of fibrogenic genes in cultured hepatic stellate cells. In kind it is cell-based, rat. To be noted: freshly isolated quiescent hepatic stellate cells in culture. The source says:
EZH2 is therefore a negative regulator of PPARγ transcription in myofibroblasts, but also appears to play a wider regulatory role in promoting MTD and wound-healing. Furthermore, the stimulation of EZH2 expression and subsequent methylation of H3K27 in the downstream exons of the PPARγ gene is identified as a second mechanism through which MeCP2 achieves transcriptional silencing of PPARγ. The combined effect of H3K9 methylation and HP1α binding at the 5′ end of the PPARγ gene with H3K27 methylation and PRC1 recruitment in the downstream exons would be to prevent both transcriptional initiation and elongation which reflects the biological importance of suppressing PPARγ expression for MTD and wound-healing. […]
Total RNA was purified from isolated cells using the Total RNA purification kit (Qiagen, UK) following the manufacturer's instructions and was used to generate first strand cDNA utilising a random hexamer primer [p(dN)6] and MMLV reverse transcriptase. […] After each run, a dissociation curve was performed to ensure that no primer dimers contaminated the quantification and that the product had the expected melting temperature. All PCR reactions were normalized to the internal control and relative level of transcriptional difference calculated using the following equation: [1/(2A)]×100.

Test [3] relates to α1 (I) collagen and TIMP-1 transcripts. As to the kind of experiment: Acute CCl4 liver injury, liver transcripts by qPCR. The note with it: mice, 15 mg/m^2 IP 2 hours prior to single dose of CCl4, sacrificed 24 h after. Format: in vivo, C57Bl6 mice. Here is the method:
FIG. 5—A.) and B.) 5×10^6 rat MFBs were electroporated as outlined “Materials and methods”. 2 μgs control siRNA or siRNA designed to target rat EZH2 was used per transfection. Total RNA was prepared from control or rat EZH2 siRNA transfected cells 48 h after the electroporation. First strand cDNA was synthesised which was then utilised as a template in qPCR using primers for specific amplification of EZH2 (in A.) and PPARγ (in B.). C.) Fully differentiated MFBs were treated with 1 μM 3-deazaneplanocin A or vehicle for 72 h at which time total RNA was prepared from control or drug treated cells. First strand cDNA was synthesised which was then utilised as a template in qPCR using primers for specific amplification of PPARγ. D.) Freshly isolated rat HSC were plated out onto plastic in two separate dishes and one dish treated with 1 μM 3-deazaneplanocin A at 12 h following the HSC isolation. […] Results are expressed as percent control of 3-deazaneplanocin A and olive oil vehicle injected mice (data not included in the graph).
3 deazaneplanocin A was given to two groups of four C57Bl6 mice (15 mg/m^2 which was calculated to be 0.428 μg of drug per g body weight of a mouse) was given IP 2 hours prior to a single dose of CCl4 (CCl4/olive oil in a 1:1 [vol/vol] ratio at 1 μl per g body weight). […]
(In general: Real-time PCR tracks product formation cycle by cycle.)

Test [4] deals with EZH2. To be noted: Tan J et al, 2007; cited from earlier work.

Consider `Nc1nc(Cl)cc2c1ncn2C1COC(CO)O1` (stereo not drawn) [Compound 8], for which the “inhibition of collagen I production at 7 days” value in test [1] is listed as “significant inhibition”.

`Nc1nccc2c1ncn2[C@@H]1C=C(CO)[C@@H](O)[C@H]1O` [Compound 3, 3-deazaneplanocin A]: in test [2], the “induction of fibrogenic gene al (I) collagen” value is given as “suppressed the induction” and the “induction of fibrogenic gene tissue inhibitor of metalloproteinase-1 (TIMP-1)” value was “suppressed the induction”. In test [3], the “induction of transcripts for TIMP-1 in injured liver” value is “suppressed the induction” and the “induction of transcripts for α1 (I) collagen in injured liver” value was “suppressed the induction”. The “effect on cellular EZH2” value in test [4] is on record as “depletes cells of EZH2”.
